Test results as given in paper PMC9705858, “Anti-Endotoxin 9-Meric Peptide with Therapeutic Potential for the Treatment of Endotoxemia” (Journal of Microbiology and Biotechnology, 2020).
Converted amounts (≈) assume the structure as drawn. Where two headings read alike, the source gives them in different places. Non-standard residues stand in square brackets, D forms with d. Residues, ends and D or L forms follow the SMILES beside them.

Legend:
[1] = test system: Acinetobacter baumannii (KCCM 40203); type: cell-based
Source text: (§1) The gram-negative bacterial strains Escherichia coli (KCTC 1682) and Acinetobacter baumannii (KCCM 40203) were purchased from the Korean Collection for Type Cultures (Korea) and the Korean Culture Center of Microorganisms (Korea), respectively. The MDR gram-negative strains Escherichia coli CCARM 1229, Escherichia coli CCARM 1238, Acinetobacter baumannii CCARM 12010, and Acinetobacter baumannii CCARM 12220 were obtained from the Culture Collection of Antibiotic-Resistant Microbes at Seoul Women’s University (South Korea).
(§2) The antibacterial properties of all peptides were determined by measuring the Minimum Inhibitory Concentration (MIC) as described previously. […] Two-fold serial dilutions of respective peptides were inoculated in 96-well plates in Mueller-Hinton medium, followed by the addition of bacterial suspensions (2 × 10^5 CFU/ml) at the log growth phase. The plates were incubated at 37°C for 16 h, and absorbance was read at 600 nm using a SpectraMAX microplate reader (Molecular Devices, USA).

[2] = test system: MDR Acinetobacter baumannii CCARM 12010; type: cell-based; conditions: MDRAB 12010; 99% growth inhibition; 2 × 10^5 CFU/ml, 37°C, 16 h, A600
Source text: as §1, §2

[3] = test system: MDR Acinetobacter baumannii CCARM 12220; type: cell-based; conditions: MDRAB 12220; 99% growth inhibition; 2 × 10^5 CFU/ml, 37°C, 16 h, A600
Source text: as §1, §2

[4] = test system: MDR Escherichia coli CCARM 1229; type: cell-based; conditions: MDREC 1229; 99% growth inhibition; 2 × 10^5 CFU/ml, 37°C, 16 h, A600
Source text: as §1, §2

[5] = test system: MDR Escherichia coli CCARM 1238; type: cell-based; conditions: MDREC 1238; 99% growth inhibition; 2 × 10^5 CFU/ml, 37°C, 16 h, A600
Source text: as §1, §2

[6] = test system: gram-negative bacterial strains and MDR bacterial strains; assay: Geometric mean of MICs over all tested bacterial strains and relative selective index; type: cell-based, Escherichia coli, Acinetobacter baumannii; conditions: larger values indicate greater cell selectivity
Experimental: The geometric means (GM) of MICs were assessed to evaluate the antibacterial activities of Pro9-3 series against tested bacterial strains.

sheep red blood cells = assay: Hemolysis of sheep red blood cells; type: cell-based
Experimental: (§3) The capacity of peptides in the lysis of erythrocytes was analyzed using sheep red blood cells (RBCs) as described previously. Cytotoxicity was further assessed in mouse macrophage RAW264.7 cells, which were cultured in Dulbecco’s modified Eagle medium (Thermo Fischer Scientific Inc., USA) enriched with fetal bovine serum (10%) and antibiotics (penicillin/streptomycin, 100 IU/ 100 mg/L) at 37°C in a CO2 incubator. The cytotoxic effect of Pro9-3 series peptides against RAW264.7 cells was then determined using WST-8 Cell Proliferation Assay Kit (Biomax Co. Ltd., Korea). The analysis was carried out according to our previously reported method.

[7] = test system: Escherichia coli (KCTC 1682); type: cell-based
Source text: as §1, §2

RAW264.7 cells = assay: Cytotoxicity, WST-8 cell proliferation assay; type: cell-based, mouse; conditions: 24 h, mean of three experiments
Experimental: as §3
Fig. 1 Cytotoxicities of peptides. (A) Dose-dependent hemolytic activities in sheep red blood cell (sRBC) caused by peptides. (B) Dose-response cytotoxicities of the Pro9-3 and its analogs against RAW264.7 cells for 24 h. Melittin was used as a positive control. The values are expressed as the mean ± SEM of three independent experiments: *p < 0.05; **p < 0.01; ***p < 0.001; ns, not significant.

[8] = Limulus amebocyte lysate (LAL) assay, LPS neutralization; type: biochemical, Escherichia coli; conditions: 50 μM peptide, 2 ng/ml LPS, 15 min at 37°C
Experimental: To check the endotoxin clearance properties of peptides, LAL assay was performed according to the protocol provided in the kit (Pierce LAL Chromogenic Endotoxin Quantitation Kit, Thermo Fisher Scientific). Escalating concentrations of peptides (up to 50 μM) were added with 2 ng/ml LPS (E. coli O111:B4, Sigma-Aldrich, USA) for 15 min at 37°C. To this content, an equal volume of LAL reagent was added and incubated for 15 min and then chromogenic substrate was added. The contents were incubated for another 10 min and 25% acetic acid was used to stop the reaction. The end color (yellow) formed due to […] of substrate was read at 405 nm. LL-37 was used as a control.

[9] = A. baumannii KCCM 40203, 99% growth inhibition, 2 × 10^5 CFU/ml, 37°C, 16 h, A600
[10] = E. coli KCTC 1682, 99% growth inhibition, 2 × 10^5 CFU/ml, 37°C, 16 h, A600

Compound | Minimal inhibitory concentration (MIC) [1, 9] [µM] | Minimal inhibitory concentration (MIC) [2] [µM] | Minimal inhibitory concentration (MIC) [3] [µM] | Minimal inhibitory concentration (MIC) [4] [µM] | Minimal inhibitory concentration (MIC) [5] [µM] | Relative selective index (HC10/GM of the MIC) [6] | Hemolytic activity in sRBC (in words) (sheep red blood cells; escalated dose of peptides, Fig. 1A) | Minimal inhibitory concentration (MIC) ([1]; KCCM 40203, 16 h) [µM] | Minimal inhibitory concentration (MIC) ([7]; KCTC 1682, 16 h) [µM] | HC10 (peptide concentration which induces 10% hemolysis) (sheep red blood cells) [µM] | Survival of RAW264.7 macrophage cells (RAW264.7 cells; 100 μM peptide) [%] | Minimal inhibitory concentration (MIC) [7, 10] [µM] | Survival of RAW264.7 macrophage cells (RAW264.7 cells; 50 μM peptide) [%] | LPS neutralization (LAL assay) [8] [%]
CC[C@H](C)[C@H](NC(=O)CN)C(=O)NCC(=O)N[C@@H](C)C(=O)N[C@H](C(=O)N[C@@H](CC(C)C)C(=O)N[C@@H](CCCCN)C(=O)N[C@H](C(=O)N[C@@H](CC(C)C)C(=O)N[C@H](C(=O)N[C@H](C(=O)NCC(=O)N[C@@H](CC(C)C)C(=O)N1CCC[C@H]1C(=O)N[C@@H](C)C(=O)N[C@@H](CC(C)C)C(=O)N[C@H](C(=O)N[C@@H](CO)C(=O)N[C@@H](Cc1c[nH]c2ccccc12)C(=O)N[C@H](C(=O)N[C@@H](CCCCN)C(=O)N[C@@H](CCCNC(=N)N)C(=O)N[C@@H](CCCCN)C(=O)N[C@@H](CCCNC(=N)N)C(=O)N[C@@H](CCC(N)=O)C(=O)N[C@@H](CCC(N)=O)C(N)=O)[C@@H](C)CC)[C@@H](C)CC)[C@@H](C)O)[C@@H](C)O)C(C)C)C(C)C [Melittin, reference compound] | 8 (≈ 22.8 µg/mL) | 8 (≈ 22.8 µg/mL) | 8 (≈ 22.8 µg/mL) | 16 (≈ 45.5 µg/mL) | 32 (≈ 91.1 µg/mL) | 0.06 | severe cytotoxicity even at low concentration |  |  |  |  |  |  | 
CC[C@H](C)[C@H](NC(=O)[C@H](C)NC(=O)[C@H](CC(C)C)NC(=O)[C@H](Cc1c[nH]c2ccccc12)NC(=O)[C@H](CC(C)C)NC(=O)[C@@H](N)CCCNC(=N)N)C(=O)N[C@@H](Cc1c[nH]c2ccccc12)C(=O)N[C@@H](CCCNC(=N)N)C(=O)N[C@@H](CCCNC(=N)N)C(N)=O [Pro9-3] (H-RLWLAIWRR-NH2) |  | 16 (≈ 20.3 µg/mL) | 16 (≈ 20.3 µg/mL) | 16 (≈ 20.3 µg/mL) | 32 (≈ 40.6 µg/mL) |  |  | 16 (≈ 20.3 µg/mL) | 16 (≈ 20.3 µg/mL) | 200 | 100 |  |  | 
CC[C@@H](C)[C@@H](NC(=O)[C@@H](C)NC(=O)[C@@H](CC(C)C)NC(=O)[C@@H](Cc1c[nH]c2ccccc12)NC(=O)[C@@H](CC(C)C)NC(=O)[C@H](N)CCCCN)C(=O)N[C@H](Cc1c[nH]c2ccccc12)C(=O)N[C@H](CCCCN)C(=O)N[C@H](CCCCN)C(N)=O [Pro9-3D-K] (H-[dK][dL][dW][dL][dA][dI][dW][dK][dK]-NH2) | 32 (≈ 37.9 µg/mL) | 32 (≈ 37.9 µg/mL) | 32 (≈ 37.9 µg/mL) | 32 (≈ 37.9 µg/mL) | 16 (≈ 19 µg/mL) |  |  |  |  |  |  | 16 (≈ 19 µg/mL) | 71 | 
LL-37 |  |  |  |  |  |  |  |  |  |  |  |  |  | 91
CC[C@H](C)[C@H](NC(=O)[C@H](C)NC(=O)[C@H](CC(C)C)NC(=O)[C@H](Cc1c[nH]c2ccccc12)NC(=O)[C@H](CC(C)C)NC(=O)[C@@H](N)CCCCN)C(=O)N[C@@H](Cc1c[nH]c2ccccc12)C(=O)N[C@@H](CCCCN)C(=O)N[C@@H](CCCCN)C(N)=O [Pro9-3-K] (H-KLWLAIWKK-NH2) | 64 (≈ 75.8 µg/mL) | 64 (≈ 75.8 µg/mL) | 64 (≈ 75.8 µg/mL) | 64 (≈ 75.8 µg/mL) | 64 (≈ 75.8 µg/mL) |  |  |  |  |  | 100 | 64 (≈ 75.8 µg/mL) |  | 
CC[C@@H](C)[C@@H](NC(=O)[C@@H](C)NC(=O)[C@@H](CC(C)C)NC(=O)[C@@H](Cc1c[nH]c2ccccc12)NC(=O)[C@@H](CC(C)C)NC(=O)[C@H](N)CCCNC(=N)N)C(=O)N[C@H](Cc1c[nH]c2ccccc12)C(=O)N[C@H](CCCNC(=N)N)C(=O)N[C@H](CCCNC(=N)N)C(N)=O [Pro9-3D] (H-[dR][dL][dW][dL][dA][dI][dW][dR][dR]-NH2) |  | 8 (≈ 10.1 µg/mL) | 8 (≈ 10.1 µg/mL) | 8 (≈ 10.1 µg/mL) | 4 (≈ 5.07 µg/mL) |  |  | 4 (≈ 5.07 µg/mL) |  | 200 |  | 8 (≈ 10.1 µg/mL) | 40 | 
